Data: patent US20230382889A1 (Volastra Therapeutics, Inc., priority 2022, published 2023)

What follows are molecules tested against hKIF18A (1-374) (Homo sapiens (Human), UniProt Q8NI77) (assay: Inhibition of KIF18A microtubule-dependent ATPase activity (ADP-Glo)). Conditions: 4 nM hKIF18A (1-374).
Chain of hKIF18A (1-374) (Q8NI77 1-374): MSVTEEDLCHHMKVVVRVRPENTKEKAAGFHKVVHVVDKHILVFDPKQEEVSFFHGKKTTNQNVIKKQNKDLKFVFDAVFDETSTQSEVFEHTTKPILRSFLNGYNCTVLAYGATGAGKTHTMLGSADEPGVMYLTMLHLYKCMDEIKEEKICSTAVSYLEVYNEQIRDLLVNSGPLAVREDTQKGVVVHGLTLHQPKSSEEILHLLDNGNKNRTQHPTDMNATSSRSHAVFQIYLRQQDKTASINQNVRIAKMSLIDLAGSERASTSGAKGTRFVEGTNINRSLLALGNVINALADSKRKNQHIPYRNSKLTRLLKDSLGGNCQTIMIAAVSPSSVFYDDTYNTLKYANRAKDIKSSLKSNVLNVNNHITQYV
Assay type: biochemical
Summary of the method: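 Reaction was started with pre-formed microtubules and ATP (0.2 mg/mL and 2.0 mM in the added mix) and run 60 min at 28 °C. ADP was read by ADP-Glo luminescence, and IC50 came from a four-parameter fit of % inhibition.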
An IC50 of 1.6 nM was found for `CS(=O)(=O)Nc1cc(N2CCC3(CC2)CC3)c(-n2cc(-c3cccc(N4CCC(F)(F)CC4)n3)nn2)cn1` [Compound 59, N-(5-(4-(6-(4,4-difluoropiperidin-1-yl)pyridin-2-yl)-1H-1,2,3-triazol-1-yl)-4-(6-azaspiro[2.5]octan-6-yl)pyridin-2-yl)methanesulfonamide] in this work. An IC50 of 8.6 nM was found for `O=S(=O)(CCO)Nc1ccc(-c2cn(-c3cccc(N4CCC(F)(F)CC4)c3)nn2)c(N2CCC3(CC2)CC3)c1` [Compound 65, N-(4-(1-(3-(4,4-difluoropiperidin-1-yl)phenyl)-1H-1,2,3-triazol-4-yl)-3-(6-azaspiro[2.5]octan-6-yl)phenyl)-2-hydroxyethane-1-sulfonamide] in this work. An IC50 of 16 nM was found for `Cc1cc(-c2cn(-c3ccc(NS(=O)(=O)CCO)cc3N3CCC4(CC3)CC4)nn2)nc(N2CCC(F)C2)n1` (stereo not drawn) [Compound 102, N-(4-(4-(2-(3-fluoropyrrolidin-1-yl)-6-methylpyrimidin-4-yl)-1H-1,2,3-triazol-1-yl)-3-(6-azaspiro[2.5]octan-6-yl)phenyl)-2-hydroxyethane-1-sulfonamide] in this work. An IC50 of 25 nM was found for `Cc1cc(-c2nnc(-c3ccc(NS(C)(=O)=O)cc3N3CCC4(CC3)CC4)[nH]2)nc(N2CCOCC2)n1` [Compound 6, N-(4-(5-(6-methyl-2-morpholinopyrimidin-4-yl)-4H-1,2,4-triazol-3-yl)-3-(6-azaspiro[2.5]octan-6-yl)phenyl)methanesulfonamide] in this work. An IC50 of 18 nM was found for `Cc1cc(-c2cn(-c3ccc(NS(=O)(=O)CCO)cc3N3CCCCC3)nn2)nc(N2CC3C(C2)C3(F)F)n1` (stereo not drawn) [Compound 74, N-(4-(4-(2-(6,6-difluoro-3-azabicyclo[3.1.0]hexan-3-yl)-6-methylpyrimidin-4-yl)-1H-1,2,3-triazol-1-yl)-3-(piperidin-1-yl)phenyl)-2-hydroxyethane-1-sulfonamide] in this work. An IC50 of 71 nM was found for `O=S(=O)(CCO)Nc1ccc(-n2cc(-c3ccc(C4CCCC4)o3)nn2)c(N2CCC3(CC2)CC3)c1` [Compound 126, N-(4-(4-(5-cyclopentylfuran-2-yl)-1H-1,2,3-triazol-1-yl)-3-(6-azaspiro[2.5]octan-6-yl)phenyl)-2-hydroxyethane-1-sulfonamide] in this work. An IC50 of 26 nM was found for `CCS(=O)(=O)Nc1ccc(-n2cc(-c3cc(C)cc(C(O)C4CCCC4)n3)nn2)c(N2CCC3(CC2)CC3)c1` (stereo not drawn) [Compound 138, N-(4-(4-(6-(cyclopentyl(hydroxy)methyl)-4-methylpyridin-2-yl)-1H-1,2,3-triazol-1-yl)-3-(6-azaspiro[2.5]octan-6-yl)phenyl)ethanesulfonamide] in this work. An IC50 of 13 nM was found for `CC1CN(c2cccc(-c3cn(-c4ccc(NS(C)(=O)=O)cc4N4CCC5(CC4)CC5)nn3)n2)CCO1` (stereo not drawn) [Compound 56, N-(4-(4-(6-(2-methylmorpholino)pyridin-2-yl)-1H-1,2,3-triazol-1-yl)-3-(6-azaspiro[2.5]octan-6-yl)phenyl)methanesulfonamide] in this work. An IC50 of 21 nM was found for `CS(=O)(=O)Nc1ccc(-n2cc(-c3ccc(F)c(N4CCC(F)(F)CC4)n3)nn2)c(N2CCC3(CC2)CC3)c1` [Compound 149, N-(4-(4-(6-(4,4-difluoropiperidin-1-yl)-5-fluoropyridin-2-yl)-1H-1,2,3-triazol-1-yl)-3-(6-azaspiro[2.5]octan-6-yl)phenyl)methanesulfonamide] in this work. An IC50 of 5600 nM was found for `c1cc(-c2nnc(-c3cccnc3N3CCC4(CC3)CC4)[nH]2)nc(N2CCOCC2)c1` [Compound 4, 4-(6-(5-(2-(6-azaspiro[2.5]octan-6-yl)pyridin-3-yl)-4H-1,2,4-triazol-3-yl)pyridin-2-yl)morpholine] in this work. An IC50 of 8.8 nM was found for “N-(4-(4-(2-(cyclopentyloxy)-6-methylpyrimidin-4-yl)-1H-1,2,3-triazol-1-yl)-3-(6-azaspiro[2.5]octan-6-yl)phenyl)-2-hydroxyethane-1-sulfonamide [Compound 109]” in this work. With `CS(=O)(=O)Nc1ccc(-c2noc(-c3cccc(N4CCOCC4)n3)n2)c(N2CCC3(CC2)CC3)c1` [Compound 164, N-(4-(5-(6-morpholinopyridin-2-yl)-1,2,4-oxadiazol-3-yl)-3-(6-azaspiro[2.5]octan-6-yl)phenyl)methanesulfonamide] the IC50 was > 30000 nM. An IC50 of 8.5 nM was found for `CCS(=O)(=O)Nc1ccc(-n2cc(-c3ccc(S(=O)(=O)NC(C)(C)C)o3)nn2)c(N2CCC3(CC2)CC3)c1` [Compound 132, N-(tert-butyl)-5-(1-(4-(ethylsulfonamido)-2-(6-azaspiro[2.5]octan-6-yl)phenyl)-1H-1,2,3-triazol-4-yl)furan-2-sulfonamide] in this work. An IC50 of 14 nM was found for `CS(=O)(=O)Nc1ccc(-n2cc(-c3nccc(N4CCC(F)(F)CC4)n3)cn2)c(N2CCC3(CC2)CC3)c1` [Compound 66, N-(4-(4-(4-(4,4-difluoropiperidin-1-yl)pyrimidin-2-yl)-1H-pyrazol-1-yl)-3-(6-azaspiro[2.5]octan-6-yl)phenyl)methanesulfonamide] in this work. An IC50 of 3.4 nM was found for `CS(=O)(=O)Nc1ccc(-n2cc(-c3cncc(N4CCC(F)(F)CC4)n3)nn2)c(N2CCC3(CC2)CC3)c1` [Compound 63, N-(4-(4-(6-(4,4-difluoropiperidin-1-yl)pyrazin-2-yl)-1H-1,2,3-triazol-1-yl)-3-(6-azaspiro[2.5]octan-6-yl)phenyl)methanesulfonamide] in this work. An IC50 of 6.5 nM was found for `CS(=O)(=O)Nc1ccc(-n2cc(-c3cccc(N4CC(F)(F)C4)n3)nn2)c(N2CCC3(CC2)CC3)c1` [Compound 60, N-(4-(4-(6-(3,3-difluoroazetidin-1-yl)pyridin-2-yl)-1H-1,2,3-triazol-1-yl)-3-(6-azaspiro[2.5]octan-6-yl)phenyl)methanesulfonamide] in this work. An IC50 of 4.7 nM was found for `CS(=O)(=O)Nc1ccc(-n2cc(-c3ccc(C(O)C4CCCC4)o3)nn2)c(N2CCC3(CC2)CC3)c1` (stereo not drawn) [Compound 25, N-(4-(4-(5-(cyclopentyl(hydroxy)methyl)furan-2-yl)-1H-1,2,3-triazol-1-yl)-3-(6-azaspiro[2.5]octan-6-yl)phenyl)methanesulfonamide] in this work. An IC50 of 14 nM was found for `O=S(=O)(CCO)Nc1ccc(-n2cc(-c3nc(C4=CCC(F)(F)CC4)ccc3F)nn2)c(N2CCC3(CC2)CC3)c1` [Compound 159, N-(4-(4-(6-(4,4-difluorocyclohex-1-en-1-yl)-3-fluoropyridin-2-yl)-1H-1,2,3-triazol-1-yl)-3-(6-azaspiro[2.5]octan-6-yl)phenyl)-2-hydroxyethane-1-sulfonamide] in this work. An IC50 of 17 nM was found for `CCS(=O)(=O)Nc1ccc(-n2cc(-c3cnc(C)c(N4CCC(F)(F)CC4)n3)nn2)c(N2CCC3(CC2)CC3)c1` [Compound 145, N-(4-(4-(6-(4,4-difluoropiperidin-1-yl)-5-methylpyrazin-2-yl)-1H-1,2,3-triazol-1-yl)-3-(6-azaspiro[2.5]octan-6-yl)phenyl)ethanesulfonamide] in this work. An IC50 of 20 nM was found for `O=S(=O)(CCO)Nc1ccc(-n2cc(-c3ccc(F)c(C4=CCC(F)(F)CC4)n3)nn2)c(N2CCC3(CC2)CC3)c1` [Compound 162, N-(4-(4-(6-(4,4-difluorocyclohex-1-en-1-yl)-5-fluoropyridin-2-yl)-1H-1,2,3-triazol-1-yl)-3-(6-azaspiro[2.5]octan-6-yl)phenyl)-2-hydroxyethane-1-sulfonamide] in this work. An IC50 of 18 nM was found for `CC(C)(C)NS(=O)(=O)c1cccc(-c2cn(-c3ccc(NS(=O)(=O)C4(CO)CC4)cc3N3CCC4(CC3)CC4)nn2)c1` [Compound 122, N-(tert-butyl)-3-(1-(4-((1-(hydroxymethyl)cyclopropane)-1-sulfonamido)-2-(6-azaspiro[2.5]octan-6-yl)phenyl)-1H-1,2,3-triazol-4-yl)benzenesulfonamide] in this work.
